Structures can show the parent of a compound that is named as a salt.
Key:
[1] = target: T1, Histone-lysine N-methyltransferase, H3 lysine-36 specific (Homo sapiens, UniProt Q96L73); assay: Inhibition of human recombinant NSD1 incubated for 2 hrs by AlphaLISA method
[2] = target: T2, Histone-lysine N-methyltransferase NSD2 (Homo sapiens, UniProt O96028); assay: Binding affinity to NSD2 PWWP1 domain (unknown origin) assessed as dissociation constant by SPR assay
T2 sequence (O96028 whole entry): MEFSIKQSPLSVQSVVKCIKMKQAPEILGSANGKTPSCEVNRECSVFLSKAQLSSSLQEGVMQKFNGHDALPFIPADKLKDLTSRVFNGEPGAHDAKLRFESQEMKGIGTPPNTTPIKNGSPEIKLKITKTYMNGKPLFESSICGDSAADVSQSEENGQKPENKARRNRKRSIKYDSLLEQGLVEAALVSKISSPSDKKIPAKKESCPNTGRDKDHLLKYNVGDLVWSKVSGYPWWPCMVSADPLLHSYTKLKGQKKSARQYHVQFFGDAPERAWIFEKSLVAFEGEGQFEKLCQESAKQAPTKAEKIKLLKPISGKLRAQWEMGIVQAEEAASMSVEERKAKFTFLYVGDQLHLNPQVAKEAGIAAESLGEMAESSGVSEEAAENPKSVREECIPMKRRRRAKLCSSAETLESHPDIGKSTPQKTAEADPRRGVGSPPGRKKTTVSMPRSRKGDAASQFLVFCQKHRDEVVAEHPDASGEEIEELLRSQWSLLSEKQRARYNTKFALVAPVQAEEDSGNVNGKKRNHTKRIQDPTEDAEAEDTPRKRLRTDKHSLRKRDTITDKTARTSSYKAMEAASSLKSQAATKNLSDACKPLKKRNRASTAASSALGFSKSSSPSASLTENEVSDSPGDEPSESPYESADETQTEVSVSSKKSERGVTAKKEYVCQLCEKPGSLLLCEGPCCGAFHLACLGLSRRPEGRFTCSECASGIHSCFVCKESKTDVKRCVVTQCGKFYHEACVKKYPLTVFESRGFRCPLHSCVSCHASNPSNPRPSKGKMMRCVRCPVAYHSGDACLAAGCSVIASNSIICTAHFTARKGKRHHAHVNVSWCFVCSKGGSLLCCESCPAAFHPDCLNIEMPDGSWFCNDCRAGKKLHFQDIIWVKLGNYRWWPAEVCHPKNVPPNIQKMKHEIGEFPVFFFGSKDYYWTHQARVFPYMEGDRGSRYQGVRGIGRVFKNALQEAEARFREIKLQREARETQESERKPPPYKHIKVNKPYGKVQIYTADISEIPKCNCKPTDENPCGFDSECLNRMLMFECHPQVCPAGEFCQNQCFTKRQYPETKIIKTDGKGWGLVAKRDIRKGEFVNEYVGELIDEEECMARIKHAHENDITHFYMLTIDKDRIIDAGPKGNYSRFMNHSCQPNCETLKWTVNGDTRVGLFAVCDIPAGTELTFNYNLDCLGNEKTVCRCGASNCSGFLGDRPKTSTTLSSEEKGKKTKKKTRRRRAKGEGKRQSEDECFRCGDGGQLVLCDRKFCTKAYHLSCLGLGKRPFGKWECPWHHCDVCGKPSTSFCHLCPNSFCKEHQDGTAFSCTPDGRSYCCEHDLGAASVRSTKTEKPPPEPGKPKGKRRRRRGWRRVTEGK

[3] = target: T3, Histone-lysine N-methyltransferase NSD2 (Homo sapiens) (UniProt O96028); assay: Induction of degradation of NSD2 in human U2OS cells assessed as maximum degradation relative to control; format: cell-based
T3 sequence (whole entry): T2 sequence (O96028 whole entry)

[4] = target: T2, Histone-lysine N-methyltransferase NSD2; assay: Induction of degradation of NSD2 in human U2OS cells; format: cell-based
[5] = target: T1, Histone-lysine N-methyltransferase, H3 lysine-36 specific; assay: Inhibition of human recombinant NSD1 ([…] residues) expressed in Escherichia coli BL21 (DE3) incubated for 4 hrs by scintillation/filter assay
[6] = target: T4, Histone-lysine N-methyltransferase NSD3 (Homo sapiens, UniProt Q9BZ95); assay: Inhibition of human recombinant NSD3 ([…] residues) expressed in Escherichia coli BL21 (DE3) incubated for 4 hrs by scintillation/filter assay
T4 sequence (Q9BZ95 whole entry): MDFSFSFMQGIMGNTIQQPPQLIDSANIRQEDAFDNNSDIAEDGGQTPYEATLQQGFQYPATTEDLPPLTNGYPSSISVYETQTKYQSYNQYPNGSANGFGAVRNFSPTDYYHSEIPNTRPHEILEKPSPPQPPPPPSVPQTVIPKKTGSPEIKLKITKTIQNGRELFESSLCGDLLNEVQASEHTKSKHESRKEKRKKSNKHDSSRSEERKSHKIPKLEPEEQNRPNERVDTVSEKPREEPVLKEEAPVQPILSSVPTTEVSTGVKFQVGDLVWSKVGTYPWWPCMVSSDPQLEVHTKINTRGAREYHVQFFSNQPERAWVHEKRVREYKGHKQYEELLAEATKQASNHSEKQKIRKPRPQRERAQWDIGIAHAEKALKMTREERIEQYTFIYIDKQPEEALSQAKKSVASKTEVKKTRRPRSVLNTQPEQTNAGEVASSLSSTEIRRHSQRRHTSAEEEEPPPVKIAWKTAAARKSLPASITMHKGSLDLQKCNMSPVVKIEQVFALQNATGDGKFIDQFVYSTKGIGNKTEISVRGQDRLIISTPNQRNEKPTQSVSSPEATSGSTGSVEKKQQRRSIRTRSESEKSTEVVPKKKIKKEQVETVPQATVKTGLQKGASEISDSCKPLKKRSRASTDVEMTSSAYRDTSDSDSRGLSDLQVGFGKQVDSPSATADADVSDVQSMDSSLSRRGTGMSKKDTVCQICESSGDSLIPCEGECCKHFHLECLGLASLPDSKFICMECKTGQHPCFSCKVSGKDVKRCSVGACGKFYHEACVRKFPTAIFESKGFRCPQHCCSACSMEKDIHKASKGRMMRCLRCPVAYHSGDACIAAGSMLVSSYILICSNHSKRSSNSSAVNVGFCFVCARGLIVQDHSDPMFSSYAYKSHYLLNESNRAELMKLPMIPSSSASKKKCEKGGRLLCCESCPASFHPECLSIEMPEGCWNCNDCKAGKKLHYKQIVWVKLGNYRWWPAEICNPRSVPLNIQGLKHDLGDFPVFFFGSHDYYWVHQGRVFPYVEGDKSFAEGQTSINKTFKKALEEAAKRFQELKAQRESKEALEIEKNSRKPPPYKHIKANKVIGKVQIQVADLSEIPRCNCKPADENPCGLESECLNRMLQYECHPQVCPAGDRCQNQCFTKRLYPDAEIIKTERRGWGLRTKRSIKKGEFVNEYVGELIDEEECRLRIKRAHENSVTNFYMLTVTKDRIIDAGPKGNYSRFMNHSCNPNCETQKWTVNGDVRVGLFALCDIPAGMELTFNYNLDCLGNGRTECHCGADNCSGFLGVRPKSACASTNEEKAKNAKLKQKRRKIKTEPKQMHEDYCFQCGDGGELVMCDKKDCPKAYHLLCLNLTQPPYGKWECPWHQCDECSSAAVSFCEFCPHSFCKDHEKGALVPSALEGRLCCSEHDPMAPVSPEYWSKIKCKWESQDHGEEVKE

[7] = target: T1, Histone-lysine N-methyltransferase, H3 lysine-36 specific; assay: Inhibition of N-terminal hexa-histidine tagged NSD1 SET domain (1852 to 2105 residues) (unknown origin) expressed in Escherichia coli incubated for 2 hrs by ITC method
[8] = target: T3, Histone-lysine N-methyltransferase NSD2 (Homo sapiens); assay: Inhibition of NSD2 (unknown origin) at 50 uM relative to control
[9] = target: T1, Histone-lysine N-methyltransferase, H3 lysine-36 specific; assay: Binding affinity to NSD1 (unknown origin) assessed as dissociation constant by ITC assay
[10] = target: T4, Histone-lysine N-methyltransferase NSD3; assay: Antagonist activity against recombinant human GST-tagged NSD3 PWWP1 domain (247 to 398 residues) expressed in Escherichia coli BL21(DE3) incubated for 60 mins by TR-FRET assay
[11] = test system: Respiratory syncytial virus; assay: Antiviral activity against RSV assessed as viral growth inhibition; format: functional, organism-based; conditions: human respiratory syncytial virus
[12] = target: T2, Histone-lysine N-methyltransferase NSD2; assay: Binding affinity to NSD2 PWWP1 domain (unknown origin) assessed as dissociation constant
[13] = target: T4, Histone-lysine N-methyltransferase NSD3; assay: Binding affinity to human recombinant NSD3 PWWP1 domain assessed as dissociation constant

T1 sequence (Q96L73 whole entry, the tested form may be a part): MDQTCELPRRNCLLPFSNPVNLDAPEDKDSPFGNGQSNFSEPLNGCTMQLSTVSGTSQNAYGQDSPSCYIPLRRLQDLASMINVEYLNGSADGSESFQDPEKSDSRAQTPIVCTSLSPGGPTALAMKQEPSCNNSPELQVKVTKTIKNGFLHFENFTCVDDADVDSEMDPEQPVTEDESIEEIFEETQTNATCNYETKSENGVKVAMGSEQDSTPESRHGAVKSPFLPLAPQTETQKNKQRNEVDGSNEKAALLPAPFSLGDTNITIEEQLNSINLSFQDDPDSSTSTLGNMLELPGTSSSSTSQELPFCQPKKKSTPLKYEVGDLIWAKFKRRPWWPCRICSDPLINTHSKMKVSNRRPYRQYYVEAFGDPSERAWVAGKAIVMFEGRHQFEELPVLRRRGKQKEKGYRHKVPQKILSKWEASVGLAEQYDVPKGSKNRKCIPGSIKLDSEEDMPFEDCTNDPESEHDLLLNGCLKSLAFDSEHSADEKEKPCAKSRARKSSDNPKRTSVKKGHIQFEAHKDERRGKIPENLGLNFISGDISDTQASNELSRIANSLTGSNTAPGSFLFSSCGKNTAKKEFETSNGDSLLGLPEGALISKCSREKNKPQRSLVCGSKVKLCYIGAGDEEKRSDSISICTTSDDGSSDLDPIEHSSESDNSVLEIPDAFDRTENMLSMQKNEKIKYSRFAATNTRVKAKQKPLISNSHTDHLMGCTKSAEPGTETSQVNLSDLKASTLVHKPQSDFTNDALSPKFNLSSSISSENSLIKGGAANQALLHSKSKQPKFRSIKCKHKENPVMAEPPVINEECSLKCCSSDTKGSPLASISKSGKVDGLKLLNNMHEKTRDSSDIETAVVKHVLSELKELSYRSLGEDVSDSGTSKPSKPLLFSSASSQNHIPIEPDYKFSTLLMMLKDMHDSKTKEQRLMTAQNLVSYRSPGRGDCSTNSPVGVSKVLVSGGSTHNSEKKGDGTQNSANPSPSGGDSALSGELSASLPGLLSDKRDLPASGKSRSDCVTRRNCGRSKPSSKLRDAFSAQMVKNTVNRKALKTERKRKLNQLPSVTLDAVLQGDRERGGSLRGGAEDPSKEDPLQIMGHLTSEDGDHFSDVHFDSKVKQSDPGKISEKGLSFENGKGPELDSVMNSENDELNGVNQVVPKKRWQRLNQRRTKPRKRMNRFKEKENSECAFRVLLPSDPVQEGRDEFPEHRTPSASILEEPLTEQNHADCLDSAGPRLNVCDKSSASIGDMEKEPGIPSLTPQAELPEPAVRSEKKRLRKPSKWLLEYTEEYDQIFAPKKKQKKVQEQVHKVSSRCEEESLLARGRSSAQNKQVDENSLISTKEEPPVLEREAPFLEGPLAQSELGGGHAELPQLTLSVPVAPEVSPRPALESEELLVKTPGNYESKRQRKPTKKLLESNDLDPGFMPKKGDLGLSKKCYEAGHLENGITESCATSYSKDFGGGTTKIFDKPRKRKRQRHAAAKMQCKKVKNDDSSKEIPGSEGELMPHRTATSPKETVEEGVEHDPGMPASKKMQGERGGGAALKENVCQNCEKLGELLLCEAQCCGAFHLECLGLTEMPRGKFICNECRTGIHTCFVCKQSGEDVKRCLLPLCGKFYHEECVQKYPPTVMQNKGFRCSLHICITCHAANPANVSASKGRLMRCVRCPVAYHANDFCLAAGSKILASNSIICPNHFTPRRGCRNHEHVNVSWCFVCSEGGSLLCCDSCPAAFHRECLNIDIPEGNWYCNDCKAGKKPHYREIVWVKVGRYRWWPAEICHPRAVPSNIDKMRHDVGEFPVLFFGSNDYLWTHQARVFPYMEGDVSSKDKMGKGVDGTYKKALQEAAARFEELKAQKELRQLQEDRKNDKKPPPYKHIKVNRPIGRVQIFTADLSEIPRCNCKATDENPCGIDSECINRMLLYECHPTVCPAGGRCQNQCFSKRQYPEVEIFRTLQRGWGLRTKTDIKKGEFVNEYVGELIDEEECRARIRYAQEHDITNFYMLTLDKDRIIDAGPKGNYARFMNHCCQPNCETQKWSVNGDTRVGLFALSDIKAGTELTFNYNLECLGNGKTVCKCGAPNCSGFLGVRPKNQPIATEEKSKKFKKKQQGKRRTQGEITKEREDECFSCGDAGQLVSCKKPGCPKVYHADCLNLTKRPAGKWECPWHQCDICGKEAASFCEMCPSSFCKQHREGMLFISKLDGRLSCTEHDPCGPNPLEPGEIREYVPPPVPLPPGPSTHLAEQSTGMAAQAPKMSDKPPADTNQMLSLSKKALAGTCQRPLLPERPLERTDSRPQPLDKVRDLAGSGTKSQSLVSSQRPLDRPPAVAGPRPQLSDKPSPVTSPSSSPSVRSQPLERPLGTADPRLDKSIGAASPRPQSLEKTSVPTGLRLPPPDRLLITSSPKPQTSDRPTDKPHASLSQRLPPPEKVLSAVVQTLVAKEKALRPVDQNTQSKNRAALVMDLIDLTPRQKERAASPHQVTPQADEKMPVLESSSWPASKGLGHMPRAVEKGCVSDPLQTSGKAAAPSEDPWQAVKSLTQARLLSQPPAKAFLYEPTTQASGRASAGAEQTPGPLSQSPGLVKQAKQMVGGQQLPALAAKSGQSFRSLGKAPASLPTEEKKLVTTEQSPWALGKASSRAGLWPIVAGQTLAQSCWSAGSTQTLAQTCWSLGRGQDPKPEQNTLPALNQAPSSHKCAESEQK

Nc1ncnc2c1ncn2Cc1cc(-c2ccc(F)c(F)c2)ncc1N1CCC[C@](N)(COC2CC2)C1
IC50 [1]: 214 nM

N=C(N)NCCC[C@H](N)C(=O)NCCCCCCNC(=O)c1ccc(NC(=O)c2ccc(CN(C(=O)c3ccc4c(c3)OCC(=O)N4)C3CC3)cc2)cc1
Kd [2]: 14 nM
Emax [3]: 81%
EC50 [4]: 1200 nM

COc1cc2nc(N3CCCN(C)CC3)nc(NC3CCN(Cc4ccccc4)CC3)c2cc1OC
IC50 [5]: 112000 nM
IC50 [6]: 95000 nM

N#CSc1cc(O)c2nc(N)sc2c1
IC50 [7]: < 20000 nM

COC[C@@]1(N)CCCN(c2cnc(-c3cc(Cl)ccc3F)cc2Cn2cnc3c(N)ncnc32)C1
IC50 [1]: 248 nM

CC(=O)c1ccc(-c2cc(NC(=O)Nc3ccc4nnsc4c3)cc(C(F)(F)F)c2)s1
inhibition [8]: 99%

CCN(CC)CCCC(C)Nc1ccnc2cc(Cl)ccc12 (stereo not drawn) [CHLOROQUINE PHOSPHATE]
Kd [9]: 4700 nM

CCN(CC)CCCC(C)Nc1c2ccc(Cl)cc2nc2ccc(OC)cc12 (stereo not drawn) [QUINACRINE DIHYDROCHLORIDE]
Kd [9]: 1400 nM

Cc1cc(CN2CCC(N)CC2)cc(C)c1-c1ncn(C)c1-c1ccc(C#N)c2ccccc12
IC50 [10]: 110 nM
IC50 [11]: 6300 nM

N#Cc1cccc(NC(=O)Nc2ccc3nnsc3c2)c1
inhibition [8]: 92%

O=C1COc2cc(C(=O)N(Cc3cccs3)C3CC3)ccc2N1
Kd [12]: 3400 nM

O=C(CCCC[C@@H]1SC[C@@H]2NC(=O)N[C@@H]21)NCCOCCOCCOCCOCCOCCOCCOCCOCCOCCOCCOCCNC(=O)c1ccc(NC(=O)c2ccc(CN(C(=O)c3ccc4c(c3)OCC(=O)N4)C3CC3)cc2)cc1
Kd [12]: 46 nM
Kd [13]: 46 nM

COC[C@@]1(N)CCCN(c2cnc(-c3ccc(F)cc3F)cc2Cn2cnc3c(N)ncnc32)C1
IC50 [1]: 225 nM
